Active and inactive are the calls of the source. The rule behind the calls is not given here.
What was measured:
[1] = system: K562; assay: Antiproliferative activity against human K562 cells after 48 hrs by CCK8 assay; assay type: functional, cell-based; details: K562, 48 h
[2] = system: COLO 320; assay: Antiproliferative activity against human COLO320 cells after 48 hrs by CCK8 assay; assay type: functional, cell-based; details: COLO 320, 48 h
[3] = system: MDA-MB-231; assay: Synergistic antiproliferative activity against human MDA-MB-231 cells at compound to DMXAA mol ratio of 1:1 after 48 hrs by CCK8 assay; assay type: functional, cell-based; details: MDA-MB-231, 48 h
[4] = system: MCF7; assay: Synergistic antiproliferative activity against human MCF7 cells at compound to DMXAA mol ratio of 1:1 after 48 hrs by CCK8 assay; assay type: functional, cell-based; details: MCF7, 48 h
[5] = system: HepG2; assay: Synergistic antiproliferative activity against human HepG2 cells at compound to DMXAA mol ratio of 1:1 after 48 hrs by CCK8 assay; assay type: functional, cell-based; details: HepG2, 48 h
[6] = system: COLO 320; assay: Synergistic antiproliferative activity against human COLO320 cells at compound to DMXAA mol ratio of 1:1 after 48 hrs by CCK8 assay; assay type: functional, cell-based; details: COLO 320, 48 h
[7] = system: L02; assay: Cytotoxicity against human HL-7702 cells after 48 hrs by CCK8 assay; assay type: cell-based; details: L02, 48 h
[8] = system: MDA-MB-231; assay: Induction of apoptosis in human MDA-MB-231 cells assessed as viable cells at 0.2 uM after 48 hrs by Annexin-V/FITC/PI staining based flow cytometry (reference value: 96.51 %); assay type: functional; details: MDA-MB-231, 48 h, read-out: Activity
[9] = system: MDA-MB-231; assay: Induction of apoptosis in human MDA-MB-231 cells assessed as early apoptotic cells at 0.4 uM after 48 hrs by Annexin-V/FITC/PI staining based flow cytometry (reference value: 0.44 %); assay type: functional
[10] = system: MDA-MB-231; assay: Induction of apoptosis in human MDA-MB-231 cells assessed as late apoptotic cells at 0.4 uM after 48 hrs by Annexin-V/FITC/PI staining based flow cytometry (reference value: 1.50 %); assay type: functional
[11] = system: MDA-MB-231; assay: Induction of apoptosis in human MDA-MB-231 cells assessed as necrotic cells at 0.4 uM after 48 hrs by Annexin-V/FITC/PI staining based flow cytometry (reference value: 1.55 %); assay type: functional
[12] = system: MDA-MB-231; assay: Induction of apoptosis in human MDA-MB-231 cells assessed as early apoptotic cells at 0.8 uM after 48 hrs by Annexin-V/FITC/PI staining based flow cytometry (reference value: […] %); assay type: functional
[13] = system: MDA-MB-231; assay: Induction of apoptosis in human MDA-MB-231 cells assessed as late apoptotic cells at 0.8 uM after 48 hrs by Annexin-V/FITC/PI staining based flow cytometry (reference value: 1.50 %); assay type: functional
[14] = system: MDA-MB-231; assay: Synergistic induction of apoptosis in human MDA-MB-231 cells assessed as early apoptotic cells at 0.2 uM after 48 hrs in presence of DMXAA by Annexin-V/FITC/PI staining based flow cytometry (reference value: 0.05 %); assay type: functional
[15] = system: MDA-MB-231; assay: Synergistic induction of apoptosis in human MDA-MB-231 cells assessed as necrotic cells at 0.2 uM after 48 hrs in presence of DMXAA by Annexin-V/FITC/PI staining based flow cytometry (reference value: 0.00 %); assay type: functional
[16] = system: MDA-MB-231; assay: Synergistic induction of apoptosis in human MDA-MB-231 cells assessed as viable cells at 0.8 uM after 48 hrs in presence of DMXAA by Annexin-V/FITC/PI staining based flow cytometry (reference value: 99.95 %); assay type: functional; details: MDA-MB-231, 48 h, read-out: Activity
[17] = system: MDA-MB-231; assay: Synergistic induction of apoptosis in human MDA-MB-231 cells assessed as early apoptotic cells at 0.8 uM after 48 hrs in presence of DMXAA by Annexin-V/FITC/PI staining based flow cytometry (reference value: 0.05 %); assay type: functional
[18] = system: MDA-MB-231; assay: Synergistic induction of apoptosis in human MDA-MB-231 cells assessed as late apoptotic cells at 0.8 uM after 48 hrs in presence of DMXAA by Annexin-V/FITC/PI staining based flow cytometry (reference value: 0.00 %); assay type: functional
[19] = system: MDA-MB-231; assay: Synergistic induction of apoptosis in human MDA-MB-231 cells assessed as early apoptotic cells at 0.4 uM after 48 hrs in presence of DMXAA by Annexin-V/FITC/PI staining based flow cytometry (reference value: 0.05 %); assay type: functional
[20] = system: MDA-MB-231; assay: Synergistic induction of apoptosis in human MDA-MB-231 cells assessed as late apoptotic cells at 0.4 uM after 48 hrs in presence of DMXAA by Annexin-V/FITC/PI staining based flow cytometry (reference value: 0.00 %); assay type: functional
[21] = system: MDA-MB-231; assay: Synergistic induction of apoptosis in human MDA-MB-231 cells assessed as necrotic cells at 0.4 uM after 48 hrs in presence of DMXAA by Annexin-V/FITC/PI staining based flow cytometry (reference value: 0.00 %); assay type: functional
[22] = system: MDA-MB-231; assay: Decrease in caspase-3 level in human MDA-MB-231 cells at 0.2 to 0.8 uM after 48 hrs by Western blot analysis; assay type: functional, cell-based
[23] = system: MDA-MB-231; assay: Induction of apoptosis in human MDA-MB-231 cells assessed as increase in cleaved caspase-3 expression at 0.2 to 0.8 uM after 48 hrs by Western blot analysis; assay type: functional, cell-based
[24] = system: MDA-MB-231; assay: Induction of apoptosis in human MDA-MB-231 cells assessed as increase in cleaved PARP expression at 0.2 to 0.8 uM after 48 hrs by Western blot analysis; assay type: functional, cell-based
[25] = system: MDA-MB-231; assay: Synergistic induction of apoptosis in human MDA-MB-231 cells assessed as increase in cleaved PARP level at 0.1 to 0.5 uM after 48 hrs in presence of DMXAA by Western blot analysis; assay type: functional, cell-based
[26] = system: MDA-MB-231; assay: Synergistic induction of apoptosis in human MDA-MB-231 cells assessed as increase in cleaved caspase-3 level at 0.1 to 0.5 uM after 48 hrs in presence of DMXAA by Western blot analysis; assay type: functional, cell-based
[27] = system: MDA-MB-231; assay: Synergistic induction of apoptosis in human MDA-MB-231 cells assessed as decrease in caspase-3 level at 0.1 to 0.5 uM after 48 hrs in presence of DMXAA by Western blot analysis; assay type: functional, cell-based
[28] = system: MDA-MB-231; assay: Increase in p53 level in human MDA-MB-231 cells at 0.2 to 0.8 uM after 48 hrs by Western blot analysis; assay type: functional, cell-based
[29] = system: MDA-MB-231; assay: Synergistic increase in p53 level in human MDA-MB-231 cells at 0.1 to 0.5 uM after 48 hrs in presence of DMXAA by Western blot analysis; assay type: functional, cell-based
[30] = system: MDA-MB-231; assay: Cell cycle arrest in human MDA-MB-231 cells assessed as increase in accumulation at G2/M phase at 0.8 uM after 48 hrs by propidium iodide staining based flow cytometric method relative to control; assay type: functional
[31] = system: MDA-MB-231; assay: Synergistic cell cycle arrest in human MDA-MB-231 cells assessed as accumulation at S phase 0.2 to 0.8 uM after 48 hrs in presence of DMXAA by propidium iodide staining based flow cytometric method relative to control; assay type: functional
[32] = system: MDA-MB-231; assay: Synergistic cell cycle arrest in human MDA-MB-231 cells assessed as accumulation at G2/M phase at 0.2 to 0.8 uM after 48 hrs in presence of DMXAA by propidium iodide staining based flow cytometric method; assay type: functional
[33] = system: MDA-MB-231; assay: Induction of apoptosis in human MDA-MB-231 cells after 48 hrs by Annexin-V/FITC/PI staining based flow cytometry; assay type: functional, cell-based

IC50 [1]: 13.4 µM
IC50 [2]: 10.5 µM
IC50 [3]: 0.042 µM
IC50 [4]: 2.41 µM
IC50 [5]: 7.21 µM
IC50 [6]: 5.12 µM
Structure (SMILES): O=c1c2cc(Br)ccc2oc2cc(O)cc(O)c12
IC50 [7]: 565 µM
viability at 0.2 µM [8]: 79.2%
Activity [9]: 1.74%
Activity [10]: 11.53%
Activity [11]: 38.81%
Activity [12]: 2.21%
Activity [13]: 13.71%
Activity [14]: 2.79%
Activity [15]: 38.43%
viability at 0.8 µM [16]: 41.1%
Activity [17]: 6.81%
Activity [18]: 34.65%
Activity [19]: 4.7%
Activity [20]: 26.7%
Activity [21]: 22.27%
Activity [22]: Active
Activity [23]: Active
Activity [24]: Active
Activity [25]: Active
Activity [26]: Active
Activity [27]: Active
Activity [28]: Active
Activity [29]: Active
Activity [30]: 21.8%
Activity [31]: 26.5%
Activity [32]: inactive
Activity [33]: Dose-dependent effect
